Counter-ions that a name gives are not always drawn.
What was measured:
μ-receptor = μ-receptor (Homo sapiens (Human), UniProt P35372); assay: Receptor binding, competitive displacement of [3H]DAMGO; conditions: 0.25 nM [3H]DAMGO, CHO cell membrane protein, 60 min at 25° C.
Experimental: The Ki (binding affinity) for μ-receptor was determined with a previously described method using a competitive displacement assay (Neumeyer et al., J. Med. Chem., v. 46, p. 5162-5170, 2003). Membrane protein from CHO (Chinese Hamster Ovarian) cells that stably expressed one type of the cloned human opioid receptor were incubated with 12 different concentrations of the compound in the presence of 0.25 nM [3H]DAMGO, 0.2 nM [3H]naltrindole or 1 nM [3H]U69,593 in a final volume of 1 mL of 50 mM Tris-HCl, pH 7.5 at 25° C. Incubation times of 60 min were used for [3H]DAMGO and [3H]U69,593. Because of a slower association of [3H]naltrindole with the receptor, a 3 h incubation was used with this radioligand. Samples incubated with [3H]naltrindole also contained 10 mM MgCl2 and 0.5 mM phenylmethylsulfonyl fluoride. Nonspecific binding was measured by inclusion of 10 μM naloxone. The binding was terminated by filtering the samples through Schleicher & Schuell No. 32 glass fiber filters using a Brandel 48-well cell harvester. The filters were subsequently washed three times with 3 mL of cold 50 mM Tris-HCl, pH 7.5, and were counted in 2 mL Ecoscint A scintillation fluid. For [3H]naltrindole and [3H]U69,593 binding, the filters were soaked in 0.1% polyethylenimine for at least 60 min before use. IC50 values will be calculated by least squares fit to a logarithm-probit analysis. Ki values of unlabelled compounds were calculated from the equation Ki=(IC50)/1+S where S=(concentration of radioligand)/(Kd of radioligand) (Cheng and Prusoff, Biochemical Pharmacology, v. 22, p. 3099-3108, 1973).

human μ opioid receptor = human μ opioid receptor (Homo sapiens (Human), UniProt P35372); assay: Functional activity ([35S]GTPγS binding); format: biochemical; conditions: [35S]GTPγS 0.080 nM, CHO cell membranes, 60 min at 30° C., filtration
Experimental: The [^35S]GTPγS assay measures the functional properties of a compound by quantifying the level of G-protein activation following agonist binding in studies using stably transfected cells, and is considered to be a measure of the efficacy of a compound. Membranes from CHO (Chinese Hamster Ovary) cells that stably expressed one type of the cloned human opioid receptor human were used in the experiments. In a final volume of 0.5 mL, 12 different concentrations of each test compound were incubated with 7.5 μg of CHO cell membranes that stably expressed the human p opioid receptor. The assay buffer consisted of 50 mM Tris-HCl, pH 7.4, 3 mM MgCl2, 0.2 mM EGTA, 3 μM GDP, and 100 mM NaCl. The final concentration of [35S]GTPγS was 0.080 nM. Nonspecific binding was measured by inclusion of 10 μM GTPγS. Binding was initiated by the addition of the membranes. After an incubation of 60 min at 30° C., the samples were filtered through Schleicher & Schuell No. 32 glass fiber filters. The filters were washed three times with cold 50 mM Tris-HCl, pH 7.5, and were counted in 2 mL of Ecoscint scintillation fluid.

COC1(c2ccnc(C(N)=O)c2)C2CCCC1CN(C[C@H]1C[C@@H]3C[C@@H]3C1)C2 (stereo partly drawn) [Compound 102, 4-((1R,5S,9R)-3-((1R,3r,5S)-bicyclo[3.1.0]hexan-3-ylmethyl)-9-methoxy-3-azabicyclo[3.3.1]nonan-9-yl)picolinamide hydrochloride]
Ki (μ-receptor): < 1 nM
EC50 (human μ opioid receptor): 10 to 75 nM

COC1(c2cccc(C(N)=O)c2)C2CCCC1CN(CC1CCS(=O)(=O)CC1)C2 [Compound 1, 3-((1R,5S,9r)-3-((1,1-dioxidotetrahydro-2H-thiopyran-4-yl)methyl)-9-methoxy-3-azabicyclo[3.3.1]nonan-9-yl)benzamide hydrochloride]
Ki (μ-receptor): 1 to 5 nM
EC50 (human μ opioid receptor): > 75 nM

COC1(c2ccnc(C(N)=O)c2)C2CCCC1CN([C@H]1CC[C@@H]1c1ccccc1)C2 (stereo partly drawn) [Compound 117, 4-((1R,5S,9s)-9-methoxy-3-((1S,2R)-2-phenylcyclobutyl)-3-azabicyclo[3.3.1]nonan-9-yl)picolinamide hydrochloride]
Ki (μ-receptor): 1 to 5 nM
EC50 (human μ opioid receptor): 10 to 75 nM

COC1(c2cccc(C(N)=O)c2)C2CCCC1CN(C1CC3(CCC3)C1)C2 [Compound 129, 3-((1R,5S,9r)-9-methoxy-3-(spiro[3.3]heptan-2-yl)-3-azabicyclo[3.3.1]nonan-9-yl)benzamide hydrochloride]
Ki (μ-receptor): < 1 nM
EC50 (human μ opioid receptor): < 10 nM

COC1(c2cccc(C(N)=O)c2)C2CCCC1CN(C1CC3(CCOCC3)C1)C2 [Compound 6, 3-((1R,5S,9r)-9-methoxy-3-(7-oxaspiro[3.5]nonan-2-yl)-3-azabicyclo[3.3.1]nonan-9-yl)benzamide hydrochloride]
Ki (μ-receptor): < 1 nM
EC50 (human μ opioid receptor): < 10 nM

COC1(c2cccc(C(N)=O)c2)C2CCCC1CN(CCS(C)(=O)=O)C2 [Compound 150, 3-((1R,5S,9r)-9-methoxy-3-(2-(methylsulfonyl)ethyl)-3-azabicyclo[3.3.1]nonan-9-yl)benzamide hydrochloride]
Ki (μ-receptor): 1 to 5 nM
EC50 (human μ opioid receptor): > 75 nM

COC1(c2ccnc(C(N)=O)c2)C2CCCC1CN([C@H]1CC[C@@H]1C)C2 (single isomer, unassigned) [Compound 144, hydrochloride]
Ki (μ-receptor): < 1 nM
EC50 (human μ opioid receptor): 10 to 75 nM

COC1(c2ccnc(C(N)=O)c2)C2CCCC1CN(Cc1ccn[nH]1)C2 [Compound 100, 4-((1R,5S,9r)-3-((1H-pyrazol-5-yl)methyl)-9-methoxy-3-azabicyclo[3.3.1]nonan-9-yl)picolinamide hydrochloride]
Ki (μ-receptor): < 1 nM
EC50 (human μ opioid receptor): 10 to 75 nM

COC1(c2cccc(C(N)=O)c2)C2CCCC1CN(C[C@@H]1[C@@H]3COC[C@@H]31)C2 (stereo partly drawn) [Compound 175]
Ki (μ-receptor): < 1 nM
EC50 (human μ opioid receptor): 10 to 75 nM

COC1(c2ccnc(C(N)=O)c2F)C2CCCC1CN(C1CC1)C2 [Compound 57, 4-((1R,5S,9r)-3-cyclopropyl-9-methoxy-3-azabicyclo[3.3.1]nonan-9-yl)-3-fluoropicolinamide hydrochloride]
Ki (μ-receptor): > 5 nM
EC50 (human μ opioid receptor): > 75 nM

COC1(c2ccnc(C(N)=O)c2)C2CCCC1CN(Cc1ccno1)C2 [Compound 124, 4-((1R,5S,9r)-3-(isoxazol-5-ylmethyl)-9-methoxy-3-azabicyclo[3.3.1]nonan-9-yl)picolinamide hydrochloride]
Ki (μ-receptor): > 5 nM
EC50 (human μ opioid receptor): > 75 nM

COC1(c2ccnc(C(N)=O)c2)C2CCCC1CN(C1CCC(F)(F)CC1)C2 [Compound 7, 4-((1R,5S,9r)-3-(4,4-difluorocyclohexyl)-9-methoxy-3-azabicyclo[3.3.1]nonan-9-yl)picolinamide hydrochloride]
Ki (μ-receptor): 1 to 5 nM
EC50 (human μ opioid receptor): > 75 nM

COC1(c2ccnc(C(N)=O)c2)C2CCCC1CN([C@H]1C[C@H](C)C1)C2 (stereo partly drawn) [Compound 131, 4-((1R,5S,9R)-9-methoxy-3-((1r,3R)-3-methylcyclobutyl)-3-azabicyclo[3.3.1]nonan-9-yl)picolinamide hydrochloride]
Ki (μ-receptor): 1 to 5 nM
EC50 (human μ opioid receptor): 10 to 75 nM

COC1(c2ccc(C(N)=O)s2)C2CCCC1CN(C1CN(C(C)=O)C1)C2 [Compound 114, 5-((1R,5S,9r)-3-(1-acetylazetidin-3-yl)-9-methoxy-3-azabicyclo[3.3.1]nonan-9-yl)thiophene-2-carboxamide hydrochloride]
Ki (μ-receptor): > 5 nM
EC50 (human μ opioid receptor): > 75 nM

COC1(c2cccc(C(N)=O)c2)C2CCCC1CN(CC1(O)Cc3ccccc3C1)C2 [Compound 58, 3-((1R,5S,9r)-3-((2-hydroxy-2,3-dihydro-1H-inden-2-yl)methyl)-9-methoxy-3-azabicyclo[3.3.1]nonan-9-yl)benzamide hydrochloride]
Ki (μ-receptor): < 1 nM
EC50 (human μ opioid receptor): < 10 nM

COC1(c2cccc(C(N)=O)c2)C2CCCC1CN(C1COC1)C2 [Compound 50, 3-((1R,5S,9r)-9-methoxy-3-(oxetan-3-yl)-3-azabicyclo[3.3.1]nonan-9-yl)benzamide (S)-2-hydroxysuccinate]
Ki (μ-receptor): 1 to 5 nM
EC50 (human μ opioid receptor): 10 to 75 nM

COC1(c2ccnc(C(N)=O)c2)C2CCCC1CN([C@@H]1CC[C@H]1c1ccccc1)C2 (stereo partly drawn) [Compound 109, 4-((1R,5S,9R)-9-methoxy-3-((1R,2S)-2-phenylcyclobutyl)-3-azabicyclo[3.3.1]nonan-9-yl)picolinamide hydrochloride]
Ki (μ-receptor): < 1 nM
EC50 (human μ opioid receptor): < 10 nM

COC1(c2ccc(C(N)=O)s2)C2CCCC1CN(C1CCCCC1)C2 [Compound 101, 5-((1R,5S,9r)-3-cyclohexyl-9-methoxy-3-azabicyclo[3.3.1]nonan-9-yl)thiophene-2-carboxamide hydrochloride]
Ki (μ-receptor): 1 to 5 nM
EC50 (human μ opioid receptor): > 75 nM

COC1(c2cccc(C(N)=O)c2)C2CCCC1CN(C1CCOCC1)C2 [Compound 45, 3-((1R,5S,9r)-9-methoxy-3-(tetrahydro-2H-pyran-4-yl)-3-azabicyclo[3.3.1]nonan-9-yl)benzamide hydrochloride]
Ki (μ-receptor): 1 to 5 nM
EC50 (human μ opioid receptor): 10 to 75 nM

COC1(c2ccc(C(N)=O)s2)C2CCCC1CN(CC1CC1)C2 [Compound 36, 5-((1R,5S,9r)-3-(cyclopropylmethyl)-9-methoxy-3-azabicyclo[3.3.1]nonan-9-yl)thiophene-2-carboxamide hydrochloride]
Ki (μ-receptor): < 1 nM
EC50 (human μ opioid receptor): 10 to 75 nM

COC1(c2ccnc(C(N)=O)c2)C2CCCC1CN(C1CC(c3ccccc3)C1)C2 [Compound 89, 4-((1R,5S,9R)-9-methoxy-3-((1s,3S)-3-phenylcyclobutyl)-3-azabicyclo[3.3.1]nonan-9-yl)picolinamide hydrochloride]
Ki (μ-receptor): < 1 nM
EC50 (human μ opioid receptor): < 10 nM

COC1(c2cccc(C(N)=O)c2)C2CCCC1CN([C@H]1C[C@@H]3[C@H](C1)C3(F)F)C2 (stereo partly drawn) [Compound 17, 3-((1R,5S,9R)-3-((1R,3r,5S)-6,6-difluorobicyclo[3.1.0]hexan-3-yl)-9-methoxy-3-azabicyclo[3.3.1]nonan-9-yl)benzamide hydrochloride]
Ki (μ-receptor): < 1 nM
EC50 (human μ opioid receptor): < 10 nM

COC1(c2ccnc(C(N)=O)c2)C2CCCC1CN(C[C@@H]1CCCO1)C2 (single isomer, unassigned) [Compound 135, hydrochloride]
Ki (μ-receptor): 1 to 5 nM
EC50 (human μ opioid receptor): 10 to 75 nM

COC1(c2ccnc(C(N)=O)c2)C2CCCC1CN(CC1(O)Cc3ccccc3C1)C2 [Compound 73, 4-((1R,5S,9r)-3-((2-hydroxy-2,3-dihydro-1H-inden-2-yl)methyl)-9-methoxy-3-azabicyclo[3.3.1]nonan-9-yl)picolinamide hydrochloride]
Ki (μ-receptor): < 1 nM
EC50 (human μ opioid receptor): < 10 nM

COC1(c2ccnc(C(N)=O)c2F)C2CCCC1CN(C)C2 [Compound 53, 3-fluoro-4-((1R,5S,9r)-9-methoxy-3-methyl-3-azabicyclo[3.3.1]nonan-9-yl)picolinamide hydrochloride]
Ki (μ-receptor): 1 to 5 nM
EC50 (human μ opioid receptor): > 75 nM

COC1(c2ccnc(C(N)=O)c2)C2CCCC1CN([C@H]1C[C@@H](OC)C1)C2 (stereo partly drawn) [Compound 139, 4-((1R,5S,9R)-9-methoxy-3-((1r,3R)-3-methoxycyclobutyl)-3-azabicyclo[3.3.1]nonan-9-yl)picolinamide hydrochloride]
Ki (μ-receptor): < 1 nM
EC50 (human μ opioid receptor): 10 to 75 nM

COC1(c2cccc(C(N)=O)c2)C2CCCC1CN(Cc1n[nH]c3ccccc13)C2 [Compound 154, 3-((1R,5S,9r)-3-((1H-indazol-3-yl)methyl)-9-methoxy-3-azabicyclo[3.3.1]nonan-9-yl)benzamide hydrochloride]
Ki (μ-receptor): < 1 nM
EC50 (human μ opioid receptor): < 10 nM

Reference: patent publication US10604489B2, “Compounds for the treatment of pain” (priority 2018, dated 2020)
